Here are results for 1 molecule from patent publication US7321000B2, “Ophthalmic composition containing N-acetyl-cysteine for the treatment of dry-eye syndrome” (Farmigea S.p.A., priority 2001, dated 2008).

The nature of this series: Stability studies: autoclaving, colorimetric determination of N-AC. It counts as physicochemical. Conditions: 120° C., 20 min.; both in the presence and absence of benzalkonium chloride. As for the experimental part: The formulations underwent autoclaving (120° C., 20 min.): as highlighted in the prior art, N-acetyl-cysteine is degraded by about 30% (both in the presence and absence of benzalkonium chloride). It is, however, possible to carry out sterilisation by filtering through a 0.2 μm membrane, as was performed in the aforesaid examples.
In order to evaluate the stability of N-AC in the vehicle, it is not possible to use the HPLC method or ultraviolet spectrophotometry. The following calorimetric method was thus employed (Raggi M. A., Cavrini V. and Di Pietra A. M., Colorimetric determination of acetylcysteine, penicillamine and mercaptopropionylglycine in pharmaceutical dosage forms, J. Pharm. Sci., 71, 1384-1386 (1982)).
0.163 g of acetylcysteine is dissolved in 500 ml of distilled H2O. By diluting in a proportion of 1:5, the required concentration is obtained.
Increasing volumes of this solution (1-5 ml) are placed in a 25 ml flask and then the following are added in succession:
After 20 min the absorbance is measured at 515 nm by using as reference a control prepared at the same time as the sample.
The procedure described above was also applied to carry out the calibration of N-AC in the presence of DEAE-dextrane. For these samples, the measurement was carried out by using as reference a control containing the polymer and also a control without DEAE-dextrane.

For the molecule `CC(=O)N[C@@H](CS)C(=O)O` [N-acetyl-cysteine], the “degradation of N-acetyl-cysteine on autoclaving” value is “about 30%”.
